Experimental findings from patent publication US10105373B2, “Fused triterpene compounds and uses thereof” (PIRAMAL ENTERPRISES LIMITED, priority 2014, dated 2018) are described below.

For the assay, the target named is T1, RORγt receptor protein (Homo sapiens, UniProt P51449).
T1 sequence (P51449 1-497 isoform P51449-2): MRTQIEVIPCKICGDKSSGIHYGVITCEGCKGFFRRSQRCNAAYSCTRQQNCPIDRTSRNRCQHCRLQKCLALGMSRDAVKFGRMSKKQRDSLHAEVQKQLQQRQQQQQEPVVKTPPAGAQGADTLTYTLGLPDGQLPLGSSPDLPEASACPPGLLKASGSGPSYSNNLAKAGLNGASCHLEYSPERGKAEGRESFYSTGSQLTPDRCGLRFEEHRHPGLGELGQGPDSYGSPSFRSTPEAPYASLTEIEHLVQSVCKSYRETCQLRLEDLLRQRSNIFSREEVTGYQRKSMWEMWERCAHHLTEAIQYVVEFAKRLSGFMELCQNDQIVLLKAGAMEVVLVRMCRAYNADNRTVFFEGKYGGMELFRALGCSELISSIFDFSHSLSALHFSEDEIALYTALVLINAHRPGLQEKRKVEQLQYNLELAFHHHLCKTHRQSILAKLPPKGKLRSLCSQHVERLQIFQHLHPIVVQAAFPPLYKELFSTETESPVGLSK
The assay can be described thus: General RORγ binding assay (radioligand binding, [3H]25-hydroxy cholesterol displacement). Conditions: displacement of [3H]25-hydroxy cholesterol from 200 ng RORγt receptor protein, 1 h room temperature; test concentrations 0.01-3 μM, concentration for the % not stated. As for the experimental part: General RORγ Binding Assay:
The RORγ binding of compounds of the present invention as described herein to RORγ was measured. For the radioligand binding assay, various concentrations of the test compounds were prepared (0.01 μM, 0.03 μM, 0.1 μM, 0.3 μM, 1 μM and 3 μM) and the samples were incubated with 200 ng of RORγt receptor protein in the presence of the [^3H]25-hydroxy cholesterol and the mixture was incubated at room temperature for 1 h. An extent of displacement of the radioligand was measured after harvesting the reaction mixture on filter plate reader using TopCount (Perkin Elmer) for radioactivity. The compounds of present invention were tested for RORγ binding using the above assay procedure and the results obtained are given in the below Table 1.

Take `Cc1nc(N2CCOCC2)c2c(n1)C(C)(C)[C@@H]1CC[C@]3(C)[C@H](CC=C4[C@@H]5[C@@H](C)[C@H](C)CC[C@]5(C(=O)O)CC[C@]43C)[C@@]1(C)C2` [Example 55, (1S,2R,4aS,6aS,6bR,8aR,14aR,14bR,16bS)-1,2,6a,6b,9,9,11,14a-octamethyl-13-morpholino-1,2,3,4,4a,5,6,6a,6b,7,8,8a,9,14,14a,14b,15,16b-octadecahydrochryseno[1,2-g]quinazoline-4a-carboxylic acid]: the “ROR binding (%)” value is “++ (‘++’ corresponds to 50 to 70% binding of the compounds of present invention)”. For `C[C@H]1[C@H](C)CC[C@]2(C(=O)O)CC[C@]3(C)C(=CC[C@@H]4[C@@]5(C)Cc6c(N(C)C)ncnc6C(C)(C)[C@@H]5CC[C@]43C)[C@H]12` [Example 27, (1S,2R,4aS,6aS,6bR,8aR,14aR,14bR,16bS)-13-(dimethylamino)-1,2,6a,6b,9,9,14a-hepta methyl-1,2,3,4,4a,5,6,6a,6b,7,8,8a,9,14,14a,14b,15,16b-octadecahydrochryseno[1,2-g]quinazoline-4a-carboxylic acid], the “ROR binding (%)” value was “++ (‘++’ corresponds to 50 to 70% binding of the compounds of present invention)”.

Consider `Cc1nc(N2CCCC2)c2c(n1)C(C)(C)[C@@H]1CC[C@]3(C)[C@H](CC=C4[C@@H]5[C@@H](C)[C@H](C)CC[C@]5(C(=O)O)CC[C@]43C)[C@@]1(C)C2` [Example 45, (1S,2R,4aS,6aS,6bR,8aR,14aR,14bR,16bS)-1,2,6a,6b,9,9,11,14a-octamethyl-13-(pyrrolidin-1-yl)-1,2,3,4,4a,5,6,6a,6b,7,8,8a,9,14,14a,14b,15,16b-octadecahydrochryseno[1,2-g]quinazoline-4a-carboxylic acid], for which the “ROR binding (%)” value is “++ (‘++’ corresponds to 50 to 70% binding of the compounds of present invention)”.

In the case of `COc1ncnc2c1C[C@]1(C)[C@H]3CC=C4[C@@H]5[C@@H](C)[C@H](C)CC[C@]5(C(=O)O)CC[C@@]4(C)[C@]3(C)CC[C@H]1C2(C)C` [Example 23, (1S,2R,4aS,6aS,6bR,8aR,14aR,14bR,16bS)-13-methoxy-1,2,6a,6b,9,9,14a-heptamethyl-1,2,3,4,4a,5,6,6a,6b,7,8,8a,9,14,14a,14b,15,16b-octadecahydrochryseno[1,2-g]quinazoline-4a-carboxylic acid], the “ROR binding (%)” value is “++ (‘++’ corresponds to 50 to 70% binding of the compounds of present invention)”. With `C[C@H]1[C@H](C)CC[C@]2(C(=O)O)CC[C@]3(C)C(=CC[C@@H]4[C@@]5(C)Cc6c(N7CCOCC7)ncnc6C(C)(C)[C@@H]5CC[C@]43C)[C@H]12` [Example 14, (1S,2R,4aS,6aS,6bR,8aR,14aR,14bR,16bS)-1,2,6a,6b,9,9,14a-heptamethyl-13-morpholino-1,2,3,4,4a,5,6,6a,6b,7,8,8a,9,14,14a,14b,15,16b-octadecahydrochryseno[1,2-g]quinazoline-4a-carboxylic acid] the entry was “++ (‘++’ corresponds to 50 to 70% binding of the compounds of present invention)”; with `CCS(=O)(=O)c1ncc2c(n1)C(C)(C)[C@@H]1CC[C@]3(C)[C@H](CC=C4C5[C@@H](C)[C@H](C)CC[C@]5(C(=O)O)CC[C@]43C)[C@@]1(C)C2` (stereo partly drawn) [Example 78, (1S,2R,4aS,6aS,6bR,8aR,14aR,14bR)-11-(ethylsulfonyl)-1,2,6a,6b,9,9,14a-heptamethyl-1,2,3,4,4a,5,6,6a,6b,7,8,8a,9,14,14a,14b,15,16b-octadecahydrochryseno[1,2-g]quinazoline-4a-carboxylic acid], “+++ (‘+++’ corresponds to more than 80% binding of the compounds of present invention)”.

As for `Cc1nc(N(C)C)c2c(n1)C(C)(C)[C@@H]1CC[C@]3(C)[C@H](CC=C4[C@@H]5[C@@H](C)[C@H](C)CC[C@]5(C(=O)O)CC[C@]43C)[C@@]1(C)C2` [Example 38, (1S,2R,4aS,6aS,6bR,8aR,14aR,14bR,16bS)-13-(dimethylamino)-1,2,6a,6b,9,9,11,14a-octamethyl-1,2,3,4,4a,5,6,6a,6b,7,8,8a,9,14,14a,14b,15,16b-octadecahydrochryseno[1,2-g]quinazoline-4a-carboxylic acid], the “ROR binding (%)” value is listed as “++ (‘++’ corresponds to 50 to 70% binding of the compounds of present invention)”. In the case of `C[C@H]1[C@H](C)CC[C@]2(C(=O)O)CC[C@]3(C)C(=CC[C@@H]4[C@@]5(C)Cc6cccnc6C(C)(C)[C@@H]5CC[C@]43C)[C@H]12` [Example 84, (1S,2R,4aS,6aS,6bR,8aR,14aR,14bR,16bS)-1,2,3,4,4a,5,6,6a,6b,7,8,8a,9,14,14a,14b,15,16b-octadecahydro-1,2,6a, 6b,9,9,14a-heptamethylchryseno[1,2-g]quinoline-4a-carboxylic acid], the “ROR binding (%)” value was “++ (‘++’ corresponds to 50 to 70% binding of the compounds of present invention)”. With `Cc1nc(O)c2c(n1)C(C)(C)[C@@H]1CC[C@]3(C)[C@H](CC=C4[C@@H]5[C@@H](C)[C@H](C)CC[C@]5(C(=O)O)CC[C@]43C)[C@@]1(C)C2` [Example 31, (1S,2R,4aS,6aS,6bR,8aR,14aR,14bR,16bS)-13-hydroxy-1,2,6a,6b,9,9,11,14a-octamethyl-1,2,3,4,4a,5,6,6a,6b,7,8,8a,9,14,14a,14b,15,16b-octadecahydrochryseno[1,2-g]quinazoline-4a-carboxylic acid], the “ROR binding (%)” value is listed as “++ (‘++’ corresponds to 50 to 70% binding of the compounds of present invention)”. With `C[C@H]1[C@H](C)CC[C@]2(C(=O)O)CC[C@]3(C)C(=CC[C@@H]4[C@@]5(C)Cc6cc(C(N)=O)cnc6C(C)(C)[C@@H]5CC[C@]43C)[C@H]12` [Example 94, (1S,2R,4aS,6aS,6bR,8aR,14aR,14bR,16bS)-12-carbamoyl-1,2,3,4,4a,5,6,6a,6b,7,8,8a,9,14,14a,14b,15,16b-octadecahydro-1,2,6a,6b,9,9,14a-heptamethylchryseno[1,2-g]quinoline-4a-carboxylic acid] the entry was “++ (‘++’ corresponds to 50 to 70% binding of the compounds of present invention)”.

`Cc1ncc2c(n1)C(C)(C)[C@@H]1CC[C@]3(C)[C@H](CC=C4[C@@H]5[C@@H](C)[C@H](C)CC[C@]5(C(=O)O)CC[C@]43C)[C@@]1(C)C2` [Example 59, (1S,2R,4aS,6aS,6bR,8aR,14aR,14bR,16bS)-1,2,6a,6b,9,9,11,14a-octamethyl-1,2,3,4,4a,5,6,6a,6b,7,8,8a,9,14,14a,14b,15,16b-octadecahydrochryseno[1,2-g]quinazoline-4a-carboxylic acid]: the “ROR binding (%)” value is recorded as “+++ (‘+++’ corresponds to more than 80% binding of the compounds of present invention)”. The entry for `C[C@H]1[C@H](C)CC[C@]2(C(=O)O)CC[C@]3(C)C(=CC[C@@H]4[C@@]5(C)Cc6cncnc6C(C)(C)[C@@H]5CC[C@]43C)[C@H]12` [Example 6, (1S,2R,4aS,6aS,6bR,8aR,14aR,14bR,16bS)-1,2,6a,6b,9,9,14a-heptamethyl-1,2,3,4,4a,5,6,6a,6b,7,8,8a,9,14,14a,14b,15,16b-octadecahydrochryseno[1,2-g]quinazoline-4a-carboxylic acid] is “+++ (‘+++’ corresponds to more than 80% binding of the compounds of present invention)”; for `C[C@H]1[C@H](C)CC[C@]2(C(=O)O)CC[C@]3(C)C(=CC[C@@H]4[C@@]5(C)Cc6cnc(S(C)(=O)=O)nc6C(C)(C)[C@@H]5CC[C@]43C)[C@H]12` [Example 81, (1S,2R,4aS,6aS,6bR,8aR,14aR,14bR,16bS)-1,2,6a,6b,9,9,14a-heptamethyl-11-(methylsulfonyl)-1,2,3,4,4a,5,6,6a,6b,7,8,8a,9,14,14a,14b,15,16b-octadecahydrochryseno [1,2-g]quinazoline-4a-carboxylic acid] it is “+++ (‘+++’ corresponds to more than 80% binding of the compounds of present invention)”.
